From patent publication US6054441A, “Oxypurine nucleosides and their congeners, and acyl derivatives thereof, for improvement of hematopoiesis” (priority 1995, dated 2000) come the findings set out here.

In experiment [1] the test system is blood cell counts after cyclophosphamide. Nature of the experiment: Hematopoietic recovery after cyclophosphamide (Example 63). To be noted: for Spleen: 25 mg/kg TriPdG or molar equivalent. Type of experiment: in vivo, Balb-C mice. Here is the method: Fifty-eight female Balb-C mice weighing approximately 20 grams each received a single injection of cyclophosphamide (250 mg/kg, i.p.), and were then distributed into a vehicle control group (0.2% Tween-80+7.5% DMSO in saline; n=12) or one of five treatment groups:
Vehicle or treatment agents were administered to mice once daily for five days at a volume of 0.4 ml by i.p. injection. TriPdG was given at a dose of 25 mg/kg/treatment. The other four agents were given in doses that are the molar equivalent of 25 mg/kg/treatment of TriPdG. On days 5 and 7 following CP administration half of the animals from each of the six groups were bled and then sacrificed by cervical dislocation. Five untreated mice were also bled and sacrificed to provide data on normal (basal) values. Spleens were removed and weighed, and complete blood cell counts performed.

The test system of experiment [2] is blood cell counts after 5-fluorouracil. Description: Pretreatment dose response, recovery after 5-fluorouracil (Example 65). Type of experiment: in vivo, Balb/C mice. Here is the method:
Sixty female Balb/C mice weighing approximately 20 grams each were distributed into one of five treatment groups and treated once daily for three days by i.p. injection with 3',5'-O-N^2 -tripalmitoyl-2'-deoxyguanosine at a dose of either 1, 5, 10, 25, or 50 mg/kg/treatment in a Tween-DMSO vehicle (0.2% Tween-80 and 7.5% DMSO in physiological saline). Injection volume was 0.4 ml. An additional twelve animals (controls) received vehicle alone on those three days. On the fourth day all seventy-two animals received a single i.p. injection of 5-fluorouracil (5-FU) at a dose of 150 mg/kg. On days 7 and 10 following 5-FU administration six mice from each group were bled and then sacrificed by cervical dislocation. Six untreated mice were also bled and sacrificed to provide data on normal (basal) values. Spleens were removed and weighed, and complete blood cell counts performed.

The test system of experiment [3] is blood cell counts after cyclophosphamide. Description: Hematopoietic recovery after cyclophosphamide (Example 62). Type of experiment: in vivo, Balb/C mice. To be noted: for Spleen: 25 mg/kg TriPdG or molar equivalent. Here is the method:
Thirty-six female Balb/C mice weighing approximately 20 grams each received a 0.4 ml i.p. injection of either 3',5'-O-N^2 -tripalmitoyl-2'-deoxyguanosine (triPdG) at a dose of 25 mg/kg/treatment or 3',5'-O-dipalmitoyl-2'-deoxyguanosine (diPdG) at a dose that was the molar equivalent of 25 mg/kg tripalmitoylgdeoxyguanosine, in a Tween-DMSO vehicle (0.2% Tween-80 and 7.5% DMSO in saline) or vehicle alone one time daily for five days following a single injection of cyclophosphamide (CP) (250 mg/kg, i.p.). On days 5 and 7 following CP administration six animals from each of these three groups were bled and then sacrificed by cervical dislocation. Six untreated mice were also bled and sacrificed to provide data on normal. (basal) values. Spleens were removed and weighed, and complete blood cell counts performed.

In the next experiment the test system is bone marrow cells. Nature of the experiment: Proliferation of bone marrow cells in long-term culture (Example 68). Type of experiment: cell-based, B6D2F1 mice. To be noted: 10 micrograms per ml. Here is the method: Bone marrow cells from the femurs of B6D2F1 mice were used to establish long-term marrow cultures. After four weeks, when the stromal layer was confluent, the culture was treated with microphenolic acid in order to remove all cells from the stroma. New normal bone marrow cells (1×10^5 /ml) from the same source were then used to "recharge" the stromal layer. Palmitoyldeoxyguanosine was added to half of the cultures at a concentration of 10 micrograms per ml. Cells were counted on days 1, 3, 5, and 7 following addition of palmitoyldeoxyguanosine. On days 4 and 7 cells from the culture were removed, washed, and replated in methylcellulose. The number of granulo-monocytic colonies was counted one week later.

A further experiment relates to FDCPmix cells. Description: Proliferation of FDCPmix cells, MTT assay (Example 69). Type of experiment: cell-based. As for the experimental part:
The FDCPmix cell line was used as a suitable in vitro model for predicting the effects of hematopoietic factors on pluripotential stem cells. These cells can be maintained in an-undifferentiated state in the presence of IL-3 or undergo multi-lineage development in the presence of specific hematopoietic growth factors.
This level of proliferation (100%) served as the control value. Inhibition of proliferation by test compounds was represented as a percent of control.
FDCPmix cells were plated at a density of 5×10^4 cells per well in 96-well plates (5×10^5 /ml) using IMDM medium plus 10% fetal bovine serum. […] Test compounds were added at a decreasing concentrations ranging from 10 micrograms/ml down to 1 nanogram/ml. The test compounds included: 3',5'-O-N^2 -tripalmitoyl-2'-deoxyguanosine, 3',5'-di-O-palmitoyl-2'-deoxyguanosine, 3',5'-O-N^2 -trioctanoyl-2'-deoxyguanosine, 3',5'-di-O-octanoyl-2'-deoxyguanosine, and 3',5'-O-N^2 -trioleyl-2'-deoxyguanosine.
A general note: Tetrazolium assays rely on reduction of a dye to a coloured formazan, in cell work by metabolically active cells.

The subject of experiment [4] is hematopoietic recovery after cyclophosphamide. Nature of the experiment: Hematopoietic recovery after cyclophosphamide (Example 50). The conditions noted are these: 2 μmoles/mouse. The experiment is classed as in vivo, Balb/C mice. Here is the method: Cyclophosphamide (CP) (275 mg/kg, i.p.) was administered to 96 Balb/C female mice weighing approximately 20 grams each. Twenty-four hours later and each day thereafter mice were given a 0.4 ml i.p. injection of either Tween-80 (0.2%) (controls), palmitoyldeoxyguanosine (2 μmoles/mouse), palmitoyldeoxyinosine (2 μmoles/mouse), palmitoylacyclovir (2 μmoles/mouse), palmitoylarabinosylguanine (2 μmoles/mouse), palmitoylarabinosylhypoxanthine (2 μmoles/mouse), monopalmitoylguanosine 2',3'-acyclic dialcohol (2 μmoles/mouse), and palmitoyl-8-thioguanosine (2 μmoles/mouse). On days 5 and 7 following CP administration 6 animals in each of the 8 groups were bled and then sacrificed by cervical dislocation. Spleens were removed and weighed, and complete blood cell counts performed.

The subject of experiment [5] is hematopoiesis in normal mice. Description: Hematopoiesis in normal mice (Example 56). To be noted: day 5, 2.6 μmoles/mouse, 4 days. Type of experiment: in vivo, Balb/C mice. As for the experimental part:
Normal Balb/C female mice weighing approximately 20 grams each were given a daily 0.4 ml i.p. injection of either physiological saline (controls), palmitoylguanosine (2.6 μmoles/mouse), palmitoyldeoxyguanosine (2.6 μmoles/mouse), monopalmitoylguanosine 2',3'-acyclic dialcohol (2.6 μmoles/mouse), and palmitoyl-8-bromoguanosine (2.6 μmoles/mouse) for 4 days. On the fifth day all 3 animals in each of the 5 groups were bled and then sacrificed by cervical dislocation. Spleens were removed and weighed, and complete blood cell counts performed. Femoral bone marrow from each mouse was collected and a differential cell count performed on marrow smears.

Where [6] appears, read: 48 h, read-out: Cell proliferation.

For the compound `CCCCCCCCCCCCCCCC(=O)Nc1nc2c(ncn2[C@H]2C[C@H](OC(=O)CCCCCCCCCCCCCCC)[C@@H](COC(=O)CCCCCCCCCCCCCCC)O2)c(=O)[nH]1` [TriPdG, 3',5'-O-N^2-tripalmitoyl-2'-deoxyguanosine], the Neutrophils in experiment [1] (5 days after CP) is 0.6 ± .1 K/μl; in experiment [1] (7 days after CP), 7.3 ± .3 K/μl; in experiment [2] (10 days after 5-FU, 1 mg/kg), 0.4 ± .2 K/μl; in experiment [2] (10 days after 5-FU, 5 mg/kg) it was 1.6 ± .4 K/μl; in experiment [2] (10 days after 5-FU, 10 mg/kg) it was 1.8 ± .4 K/μl; in experiment [2] (10 days after 5-FU, 25 mg/kg) it was 2.9 ± .4 K/μl. In addition, the Neutrophils in experiment [2] (10 days after 5-FU, 50 mg/kg) is 2.2 ± .5 K/μl; in experiment [3] (5 days after CP), 2.5 ± .3 K/μl; in experiment [3] (7 days after CP), 9.9 ± .9 K/μl. In addition, the Platelets in experiment [1] (5 days after CP) was found to be 330 ± 19 K/μl; in experiment [1] (7 days after CP), 674 ± 37 K/μl; in experiment [2] (7 days after 5-FU, 1 mg/kg), 457 ± 36 K/μl; in experiment [2] (7 days after 5-FU, 5 mg/kg), 682 ± 66 K/μl; in experiment [2] (7 days after 5-FU, 10 mg/kg), 571 ± 41 K/μl; in experiment [2] (7 days after 5-FU, 25 mg/kg), 587 ± 19 K/μl. In addition, the Platelets in experiment [2] (7 days after 5-FU, 50 mg/kg) is listed as 596 ± 43 K/μl; in experiment [3] (7 days after CP) it was 549 ± 25 K/μl. Further, the WBC was 3.6 ± .4 K/μl in experiment [1] (5 days after CP); 3.6 ± .4 K/μl in experiment [1] (7 days after CP); 6.2 ± .4 K/μl in experiment [2] (10 days after 5-FU, 1 mg/kg); 8.2 ± .9 K/μl in experiment [2] (10 days after 5-FU, 5 mg/kg); 7.7 ± .6 K/μl in experiment [2] (10 days after 5-FU, 10 mg/kg); 11.4 ± .6 K/μl in experiment [2] (10 days after 5-FU, 25 mg/kg). For the same compound, the WBC is 10.8 ± 1.6 K/μl in experiment [2] (10 days after 5-FU, 50 mg/kg); 4.1 ± .4 K/μl in experiment [3] (5 days after CP); 13.4 ± .4 K/μl in experiment [3] (7 days after CP). Also, the Spleen in experiment [1] (5 days after CP) came out at 73 ± 3 mg; in experiment [1] (7 days after CP), 198 ± 23 mg; in experiment [2] (7 days after 5-FU, 1 mg/kg), 74 ± 3 mg; in experiment [2] (7 days after 5-FU, 5 mg/kg), 78 ± 4 mg; in experiment [2] (7 days after 5-FU, 10 mg/kg), 83 ± 6 mg; in experiment [2] (7 days after 5-FU, 25 mg/kg), 93 ± 5 mg. In addition, the Spleen amounted to 102 ± 4 mg in experiment [2] (7 days after 5-FU, 50 mg/kg); 96 ± 13 mg in experiment [2] (10 days after 5-FU, 1 mg/kg); 157 ± 13 mg in experiment [2] (10 days after 5-FU, 5 mg/kg); 169 ± 24 mg in experiment [2] (10 days after 5-FU, 10 mg/kg); 293 ± 17 mg in experiment [2] (10 days after 5-FU, 25 mg/kg); 320 ± 39 mg in experiment [2] (10 days after 5-FU, 50 mg/kg). Also, the Spleen in experiment [3] (5 days after CP) was determined as 77 ± 7 mg; in experiment [3] (7 days after CP) it was 156 ± 12 mg. Further, the Lymphocytes in experiment [2] (10 days after 5-FU, 1 mg/kg) is recorded as 5.7 ± .2 K/μl; in experiment [2] (10 days after 5-FU, 5 mg/kg), 6.3 ± .7 K/μl; in experiment [2] (10 days after 5-FU, 10 mg/kg), 5.7 ± .4 K/μl; in experiment [2] (10 days after 5-FU, 25 mg/kg) it was 8.3 ± .4 K/μl; in experiment [2] (10 days after 5-FU, 50 mg/kg), 8.3 ± 1.0 K/μl. For the same compound, the Cells in the experiment on bone marrow cells (day 1) is on record as 1.9 ± .13 10^6 /flask; with bone marrow cells (day 3), 2.9 ± .10 10^6 /flask; in the experiment with bone marrow cells (day 5) it was 7.7 ± .2 10^6 /flask; in the experiment on bone marrow cells (day 7), 4.3 ± .15 10^6 /flask. Moreover, the results for the granulocyte/macrophage colony-forming units in the experiment with bone marrow cells (day 4) and with bone marrow cells (day 7) were 5123 ± 561 CFU-GM/flask and 33903 ± 9457 CFU-GM/flask, respectively. For the same compound, the inhibition of proliferation result with FDCPmix cells (10 micrograms/ml down) is “significant dose-dependent inhibitory effects at doses from 10 micrograms per ml down to 100 nanograms per ml”. Moreover, the activity at 0.01 µg/mL in the experiment with FDCPmix cells (setting [6]) is 78 ± 1%. For the same compound, the activity at 0.039 µg/mL in the experiment with FDCPmix cells (setting [6]) turned out to be 76 ± 2%. The activity at 0.156 µg/mL in the experiment on FDCPmix cells (setting [6]) was 72 ± 3%. Further, the activity at 0.625 µg/mL in the experiment with FDCPmix cells (setting [6]) is 60 ± 2%. Further, the activity at 2.5 µg/mL in the experiment on FDCPmix cells (setting [6]) was 51 ± 0.7%. Further, the activity at 10 µg/mL in the experiment with FDCPmix cells (setting [6]) turned out to be 51 ± 0.6%.
As for palmitoylarabinosylguanine, the spleen weight result in experiment [4] (day 7) is recorded as “significantly elevated on day 7 in all treatment groups except palmitoylarabinosylguanine”.
With palmitoylarabinosylhypoxanthine, in experiment [4] (day 7), the spleen weight result is “significantly elevated on day 7 in all treatment groups except palmitoylarabinosylguanine and palmitoylarabinosylhypoxanthine”.
Regarding “Palmitoylguanosine 2,3'-acyclic dialcohol”, the spleen weight entry in experiment [4] (day 5) was “significantly elevated”. Besides, in experiment [5], the platelet counts entry is “significantly elevated in the all of the treatment groups except palmitoylguanosine 2',3'-acyclic dialcohol” and the spleen weight result is “significantly elevated”. In addition, in experiment [5] (femoral bone marrow), the number of myelocytes result is reported as “significantly greater”.
With `CCCCCCCCCCCCCCCC(=O)OCCOCn1cnc2c(=O)[nH]c(N)nc21` [1-O-palmitoylacyclovir, palmitoylacyclovir], in experiment [4] (day 5), the “white blood cell count” value is listed as “significantly elevated compared to controls in all but one treatment group (1-O-palmitoylacyclovir)”.
